According to patent US12275731B2, “Azaindole inhibitors of wild-type and mutant forms of LRRK2” (DANA-FARBER CANCER INSTITUTE, INC., priority 2018, dated 2025):

Experiments:
Assay in all cases: KinomeScan profiling
Assay type in all cases: binding
ABL1-phosphorylated = target: T1, ABL1-phosphorylated (Homo sapiens, UniProt P00519); settings: read-out: % control
T1 construct: purchased KinomeScan®
Summary of the method: (§1)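 Luminescence (RLU) was converted to percent of control, with DMSO set as 100% and a reference compound as 0%. Test compounds were run at 1 μM against 468 kinases. Kinases showing below 35% of control were scored as bound.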

BMX = target: T2, BMX (Homo sapiens, UniProt P51813); settings: read-out: % control
T2 construct: purchased KinomeScan®
T2 sequence (P51813 1-675): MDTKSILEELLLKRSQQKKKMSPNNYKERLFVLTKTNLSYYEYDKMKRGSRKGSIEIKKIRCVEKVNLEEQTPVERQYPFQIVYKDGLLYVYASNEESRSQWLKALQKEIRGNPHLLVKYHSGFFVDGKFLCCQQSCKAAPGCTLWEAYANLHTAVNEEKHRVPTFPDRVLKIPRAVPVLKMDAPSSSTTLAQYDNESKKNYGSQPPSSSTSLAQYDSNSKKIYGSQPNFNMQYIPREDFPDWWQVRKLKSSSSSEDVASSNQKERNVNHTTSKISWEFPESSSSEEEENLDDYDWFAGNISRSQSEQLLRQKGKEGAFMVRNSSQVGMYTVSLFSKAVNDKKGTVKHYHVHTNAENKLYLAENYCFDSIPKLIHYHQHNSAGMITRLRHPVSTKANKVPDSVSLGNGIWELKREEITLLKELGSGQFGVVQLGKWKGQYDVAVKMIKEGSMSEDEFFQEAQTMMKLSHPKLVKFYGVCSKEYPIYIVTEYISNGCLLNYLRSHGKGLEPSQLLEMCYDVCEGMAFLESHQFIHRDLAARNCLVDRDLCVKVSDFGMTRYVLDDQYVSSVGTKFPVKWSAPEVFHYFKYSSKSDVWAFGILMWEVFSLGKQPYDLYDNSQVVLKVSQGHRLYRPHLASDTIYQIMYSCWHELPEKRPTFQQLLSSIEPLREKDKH
Summary of the method: as §1

CDC2L1 = CDC2L1 (Homo sapiens, UniProt P21127); settings: CDC2L1, 1 μM; read-out: % control
Summary of the method: as §1

CSF1R = CSF1R (Homo sapiens, UniProt P07333); settings: read-out: % control
Summary of the method: as §1

DDR1 = DDR1 (Homo sapiens, UniProt Q08345); settings: DDR1, 1 μM; read-out: % control
DDR1, sequence (Q08345 19-913): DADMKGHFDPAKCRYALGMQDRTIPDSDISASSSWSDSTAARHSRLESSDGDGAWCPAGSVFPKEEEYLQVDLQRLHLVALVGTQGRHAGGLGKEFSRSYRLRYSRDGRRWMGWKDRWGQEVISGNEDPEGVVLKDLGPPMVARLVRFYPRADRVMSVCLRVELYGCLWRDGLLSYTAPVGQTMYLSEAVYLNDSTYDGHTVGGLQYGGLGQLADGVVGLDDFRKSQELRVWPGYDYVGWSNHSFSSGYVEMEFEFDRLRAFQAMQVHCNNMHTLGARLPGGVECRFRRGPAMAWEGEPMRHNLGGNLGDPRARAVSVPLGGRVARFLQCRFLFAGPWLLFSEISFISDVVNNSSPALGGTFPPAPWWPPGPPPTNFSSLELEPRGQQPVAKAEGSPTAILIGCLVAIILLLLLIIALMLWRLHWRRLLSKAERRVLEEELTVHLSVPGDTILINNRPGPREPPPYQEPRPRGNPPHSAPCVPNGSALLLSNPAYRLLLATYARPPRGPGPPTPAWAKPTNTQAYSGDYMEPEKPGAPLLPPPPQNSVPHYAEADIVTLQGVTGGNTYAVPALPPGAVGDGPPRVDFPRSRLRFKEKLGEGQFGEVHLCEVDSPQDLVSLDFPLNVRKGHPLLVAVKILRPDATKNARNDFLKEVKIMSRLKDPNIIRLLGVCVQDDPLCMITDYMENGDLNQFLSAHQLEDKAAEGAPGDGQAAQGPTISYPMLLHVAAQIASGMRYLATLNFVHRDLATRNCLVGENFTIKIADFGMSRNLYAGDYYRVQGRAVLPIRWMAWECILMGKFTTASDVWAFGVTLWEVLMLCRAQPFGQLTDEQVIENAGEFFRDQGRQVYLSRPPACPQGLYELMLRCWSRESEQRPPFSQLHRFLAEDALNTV
Summary of the method: as §1

MAP4K2 = target: T3, MAP4K2 (Homo sapiens, UniProt Q12851); settings: MAP4K2, 1 μM; read-out: % control
T3 sequence (Q12851 1-820): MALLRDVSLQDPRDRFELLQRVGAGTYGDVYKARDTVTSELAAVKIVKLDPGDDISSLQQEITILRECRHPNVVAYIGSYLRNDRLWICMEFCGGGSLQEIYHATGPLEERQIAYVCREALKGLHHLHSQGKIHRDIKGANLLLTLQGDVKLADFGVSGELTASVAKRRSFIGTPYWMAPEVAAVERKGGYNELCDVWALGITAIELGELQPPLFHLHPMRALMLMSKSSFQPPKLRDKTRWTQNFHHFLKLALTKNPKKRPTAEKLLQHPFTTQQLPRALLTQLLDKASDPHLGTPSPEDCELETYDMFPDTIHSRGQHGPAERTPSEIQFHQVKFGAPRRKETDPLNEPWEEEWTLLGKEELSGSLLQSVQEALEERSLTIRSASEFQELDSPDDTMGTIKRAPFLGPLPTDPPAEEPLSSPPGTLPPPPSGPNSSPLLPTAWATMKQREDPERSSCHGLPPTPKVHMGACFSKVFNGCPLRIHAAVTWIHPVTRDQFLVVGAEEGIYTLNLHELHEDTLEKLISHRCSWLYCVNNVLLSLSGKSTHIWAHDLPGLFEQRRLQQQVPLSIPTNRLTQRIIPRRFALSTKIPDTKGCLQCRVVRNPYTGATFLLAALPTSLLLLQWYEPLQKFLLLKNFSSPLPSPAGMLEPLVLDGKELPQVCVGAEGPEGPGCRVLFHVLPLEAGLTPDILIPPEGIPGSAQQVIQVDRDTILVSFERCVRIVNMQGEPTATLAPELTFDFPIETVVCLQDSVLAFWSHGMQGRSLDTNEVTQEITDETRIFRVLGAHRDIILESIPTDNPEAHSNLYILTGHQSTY
Summary of the method: as §1

MEK5 = target: T4, MEK5 (Homo sapiens, UniProt Q13163); settings: MEK5, 1 μM; read-out: % control
T4 sequence (Q13163 1-448): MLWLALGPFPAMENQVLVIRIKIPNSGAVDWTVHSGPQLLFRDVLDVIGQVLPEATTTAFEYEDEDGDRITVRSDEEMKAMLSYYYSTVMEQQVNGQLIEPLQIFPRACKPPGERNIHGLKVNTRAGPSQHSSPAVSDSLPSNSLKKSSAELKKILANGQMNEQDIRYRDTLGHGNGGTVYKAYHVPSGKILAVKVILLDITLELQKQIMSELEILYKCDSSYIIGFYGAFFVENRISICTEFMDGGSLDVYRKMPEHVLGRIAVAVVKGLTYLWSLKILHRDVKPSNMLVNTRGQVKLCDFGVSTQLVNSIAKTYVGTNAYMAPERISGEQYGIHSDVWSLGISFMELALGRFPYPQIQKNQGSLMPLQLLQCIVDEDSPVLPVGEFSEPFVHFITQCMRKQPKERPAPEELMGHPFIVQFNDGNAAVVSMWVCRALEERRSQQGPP
Summary of the method: as §1

PAK3 = PAK3 (Homo sapiens, UniProt O75914); settings: PAK3, 1 μM; read-out: % control
PAK3, sequence (O75914 whole entry): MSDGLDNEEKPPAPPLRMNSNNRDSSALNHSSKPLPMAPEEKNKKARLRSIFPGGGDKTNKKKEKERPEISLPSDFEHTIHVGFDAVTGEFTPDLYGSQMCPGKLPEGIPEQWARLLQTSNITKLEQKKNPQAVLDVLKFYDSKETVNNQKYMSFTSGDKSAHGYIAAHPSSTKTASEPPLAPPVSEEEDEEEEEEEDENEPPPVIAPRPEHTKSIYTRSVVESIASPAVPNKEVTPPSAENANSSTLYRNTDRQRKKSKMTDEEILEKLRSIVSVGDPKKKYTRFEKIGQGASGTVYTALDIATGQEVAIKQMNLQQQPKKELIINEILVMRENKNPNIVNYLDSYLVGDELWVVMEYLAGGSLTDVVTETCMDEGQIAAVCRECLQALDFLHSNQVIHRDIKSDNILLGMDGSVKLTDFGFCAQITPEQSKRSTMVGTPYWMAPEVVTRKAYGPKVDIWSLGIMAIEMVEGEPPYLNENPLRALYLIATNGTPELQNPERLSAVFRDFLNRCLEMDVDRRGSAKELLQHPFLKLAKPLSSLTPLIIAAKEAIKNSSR
Summary of the method: (§2)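 Selectivity was assessed by binding competition at 1 μM against 468 kinases. Values below 35% of control define an interaction.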

PIK3CA(C420R) = target: T5, PIK3CA(C420R) (Homo sapiens, UniProt P42336, C420R); settings: read-out: % control
T5 construct: purchased KinomeScan® (panel service)
T5 sequence (P42336 whole entry C420R): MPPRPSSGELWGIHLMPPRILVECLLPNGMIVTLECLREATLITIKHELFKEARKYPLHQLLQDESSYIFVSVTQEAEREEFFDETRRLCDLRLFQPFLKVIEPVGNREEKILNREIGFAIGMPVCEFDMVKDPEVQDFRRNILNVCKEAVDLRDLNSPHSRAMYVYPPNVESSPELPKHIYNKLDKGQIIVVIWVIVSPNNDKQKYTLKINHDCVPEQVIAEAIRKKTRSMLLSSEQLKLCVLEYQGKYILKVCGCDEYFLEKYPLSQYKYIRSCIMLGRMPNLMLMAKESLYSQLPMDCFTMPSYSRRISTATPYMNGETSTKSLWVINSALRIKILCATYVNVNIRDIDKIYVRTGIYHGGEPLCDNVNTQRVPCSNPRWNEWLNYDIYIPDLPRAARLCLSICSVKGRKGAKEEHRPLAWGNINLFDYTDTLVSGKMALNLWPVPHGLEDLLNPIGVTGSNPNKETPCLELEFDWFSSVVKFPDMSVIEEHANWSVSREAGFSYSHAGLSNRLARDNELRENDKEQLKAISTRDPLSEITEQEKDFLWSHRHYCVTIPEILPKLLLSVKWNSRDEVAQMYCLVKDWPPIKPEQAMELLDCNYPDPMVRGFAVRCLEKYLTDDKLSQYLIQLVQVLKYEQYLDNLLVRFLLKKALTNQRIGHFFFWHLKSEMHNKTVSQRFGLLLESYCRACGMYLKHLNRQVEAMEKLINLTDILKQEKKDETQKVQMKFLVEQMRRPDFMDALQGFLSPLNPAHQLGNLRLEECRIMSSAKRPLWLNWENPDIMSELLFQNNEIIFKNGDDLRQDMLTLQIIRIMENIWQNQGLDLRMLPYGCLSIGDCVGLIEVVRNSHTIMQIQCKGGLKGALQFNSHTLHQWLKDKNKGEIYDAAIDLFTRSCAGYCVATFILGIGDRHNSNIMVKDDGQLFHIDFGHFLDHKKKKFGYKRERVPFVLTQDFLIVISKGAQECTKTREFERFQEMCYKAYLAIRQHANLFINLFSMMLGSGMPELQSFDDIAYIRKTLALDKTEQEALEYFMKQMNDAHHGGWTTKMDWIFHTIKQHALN
Summary of the method: as §2

PIK3CA(M1043I) = target: T6, PIK3CA(M1043I) (Homo sapiens, UniProt P42336, M1043I); settings: read-out: % control
T6 construct: purchased KinomeScan® (panel service)
T6 sequence (P42336 whole entry M1043I): as the sequence (P42336 whole entry C420R) above, with R420C, M1043I counted along it
Summary of the method: as §1

SIK = target: T7, SIK (Homo sapiens, UniProt P57059); settings: read-out: % control
T7 construct: purchased KinomeScan® (panel service)
T7 sequence (P57059 whole entry): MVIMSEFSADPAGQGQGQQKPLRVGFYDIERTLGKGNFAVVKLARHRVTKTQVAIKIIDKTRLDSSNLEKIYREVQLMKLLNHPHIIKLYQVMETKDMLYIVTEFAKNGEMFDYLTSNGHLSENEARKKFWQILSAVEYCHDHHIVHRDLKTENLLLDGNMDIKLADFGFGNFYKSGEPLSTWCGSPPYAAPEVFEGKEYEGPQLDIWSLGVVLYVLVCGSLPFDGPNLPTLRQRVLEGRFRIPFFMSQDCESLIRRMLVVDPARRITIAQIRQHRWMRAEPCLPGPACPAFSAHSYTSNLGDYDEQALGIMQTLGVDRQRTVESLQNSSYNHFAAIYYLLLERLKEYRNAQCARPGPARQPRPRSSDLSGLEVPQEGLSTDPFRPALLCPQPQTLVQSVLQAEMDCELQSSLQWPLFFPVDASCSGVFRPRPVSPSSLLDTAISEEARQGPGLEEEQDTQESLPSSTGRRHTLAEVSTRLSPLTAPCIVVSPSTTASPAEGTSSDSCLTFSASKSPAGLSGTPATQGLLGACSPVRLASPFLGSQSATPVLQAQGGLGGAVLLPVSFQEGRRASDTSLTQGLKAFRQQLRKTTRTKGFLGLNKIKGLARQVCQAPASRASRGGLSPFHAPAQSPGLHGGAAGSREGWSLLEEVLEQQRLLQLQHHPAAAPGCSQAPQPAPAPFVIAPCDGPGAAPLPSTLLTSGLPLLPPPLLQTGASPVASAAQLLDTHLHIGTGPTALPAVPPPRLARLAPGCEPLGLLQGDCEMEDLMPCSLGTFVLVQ
Summary of the method: as §1

SRPK2 = target: T8, SRPK2 (Homo sapiens, UniProt P78362); settings: SRPK2, 1 μM; read-out: % control
T8 construct: purchased KinomeScan® (panel service)
Summary of the method: as §1

T1 sequence (P00519 whole entry): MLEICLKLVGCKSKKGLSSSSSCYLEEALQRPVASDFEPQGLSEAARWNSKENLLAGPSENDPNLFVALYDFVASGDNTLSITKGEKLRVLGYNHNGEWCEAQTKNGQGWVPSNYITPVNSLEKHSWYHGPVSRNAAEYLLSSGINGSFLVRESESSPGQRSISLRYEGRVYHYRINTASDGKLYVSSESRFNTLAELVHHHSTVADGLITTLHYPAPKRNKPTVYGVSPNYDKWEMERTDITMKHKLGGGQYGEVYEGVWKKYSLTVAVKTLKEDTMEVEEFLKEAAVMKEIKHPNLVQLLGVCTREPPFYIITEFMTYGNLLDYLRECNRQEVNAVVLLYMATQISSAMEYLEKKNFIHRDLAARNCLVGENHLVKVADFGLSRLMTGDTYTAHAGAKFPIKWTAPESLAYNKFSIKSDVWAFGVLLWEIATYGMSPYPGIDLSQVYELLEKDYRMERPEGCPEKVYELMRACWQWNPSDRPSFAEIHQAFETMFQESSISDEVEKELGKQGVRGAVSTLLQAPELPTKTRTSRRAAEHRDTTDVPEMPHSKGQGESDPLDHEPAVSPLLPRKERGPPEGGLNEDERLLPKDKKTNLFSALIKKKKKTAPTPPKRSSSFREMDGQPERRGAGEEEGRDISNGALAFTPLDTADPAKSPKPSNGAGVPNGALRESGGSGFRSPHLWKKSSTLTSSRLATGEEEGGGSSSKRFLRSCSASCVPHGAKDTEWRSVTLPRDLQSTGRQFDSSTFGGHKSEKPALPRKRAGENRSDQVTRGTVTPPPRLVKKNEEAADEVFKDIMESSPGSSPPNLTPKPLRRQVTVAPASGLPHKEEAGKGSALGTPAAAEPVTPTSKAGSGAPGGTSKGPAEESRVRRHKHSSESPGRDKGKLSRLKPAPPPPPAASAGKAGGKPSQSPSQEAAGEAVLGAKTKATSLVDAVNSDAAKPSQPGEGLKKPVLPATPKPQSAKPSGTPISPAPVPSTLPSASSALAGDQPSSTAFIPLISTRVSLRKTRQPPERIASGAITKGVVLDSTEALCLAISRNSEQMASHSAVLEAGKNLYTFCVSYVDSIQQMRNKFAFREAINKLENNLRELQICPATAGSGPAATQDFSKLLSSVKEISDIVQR

CNc1c(-c2cnn([C@H]3CCN(C(C)=O)C[C@@H]3F)c2)cnc2[nH]cc(Cl)c12 [Compound 77, 1-((3S,4S)-4-(4-(3-chloro-4-(methylamino)-1H-pyrrolo[2,3-b]pyridin-5-yl)-1H-pyrazol-1-yl)-3-fluoropiperidin-1-yl)ethan-1-one]
remaining binding at 1 µM (ABL1-phosphorylated): 62%
remaining binding at 1 µM (BMX): 88%
remaining binding at 1 µM (CDC2L1): 99%
remaining binding at 1 µM (CSF1R): 74%
remaining binding at 1 µM (DDR1): 100%
remaining binding at 1 µM (MAP4K2): 20%
remaining binding at 1 µM (MEK5): 3.2%
remaining binding at 1 µM (PAK3): 97%
remaining binding at 1 µM (PIK3CA(C420R)): 75%
remaining binding at 1 µM (PIK3CA(M1043I)): 66%
remaining binding at 1 µM (SIK): 94%
remaining binding at 1 µM (SRPK2): 12%

O=C(c1ccc(-c2cnc3[nH]cc(Cl)c3c2NC2CCCC2)cc1)N1CCC(N2CCOCC2)CC1 [Compound 101, (4-(3-chloro-4-(cyclopentylamino)-1H-pyrrolo[2,3-b]pyridin-5-yl)phenyl)(4-morpholinopiperidin-1-yl)methanone]
remaining binding at 1 µM (ABL1-phosphorylated): 97%
remaining binding at 1 µM (BMX): 34%
remaining binding at 1 µM (CDC2L1): 94%
remaining binding at 1 µM (CSF1R): 28%
remaining binding at 1 µM (DDR1): 61%
remaining binding at 1 µM (MAP4K2): 20%
remaining binding at 1 µM (MEK5): 100%
remaining binding at 1 µM (PAK3): 86%
remaining binding at 1 µM (PIK3CA(C420R)): 100%
remaining binding at 1 µM (PIK3CA(M1043I)): 100%
remaining binding at 1 µM (SIK): 100%
remaining binding at 1 µM (SRPK2): 60%

CNc1c(-c2ccc(C(=O)N3CCC(N4CCOCC4)CC3)cc2)cnc2[nH]cc(Cl)c12 [Compound 96, (4-(3-chloro-4-(methylamino)-1H-pyrrolo[2,3-b]pyridin-5-yl)phenyl)(4-morpholinopiperidin-1-yl)methanone]
remaining binding at 1 µM (ABL1-phosphorylated): 88%
remaining binding at 1 µM (BMX): 93%
remaining binding at 1 µM (CDC2L1): 96%
remaining binding at 1 µM (CSF1R): 73%
remaining binding at 1 µM (DDR1): 100%
remaining binding at 1 µM (MAP4K2): 1.1%
remaining binding at 1 µM (MEK5): 7.3%
remaining binding at 1 µM (PAK3): 74%
remaining binding at 1 µM (PIK3CA(C420R)): 75%
remaining binding at 1 µM (PIK3CA(M1043I)): 81%
remaining binding at 1 µM (SIK): 87%
remaining binding at 1 µM (SRPK2): 16%
